What was measured:
[1] = xn = mol fraction of the nth substance listed; details: 101 kPa, Liquid; for electrical conductivity: Direct current cell with electrodes; for mass density: Vibrating tube method; for viscosity: n
[2] = 101 kPa, Liquid; for electrical conductivity: Direct current cell with electrodes; for viscosity: Falling or rolling sphere viscometry; for mass density: Vibrating tube method

CC(C)[C@H](N)C(=O)[O-].CCCC[P+](CCCC)(CCCC)CCCN [(3-aminopropyl)tributylphosphonium L-valinate] + O
[1]
Details | electrical conductivity [S/m] | mass density [kg/m3] | viscosity [mPa·s]
298.15 K, x2 = 0 | 0.00815 | 980.72 | 1015.5
298.15 K, x2 = 0.25 | 0.0116 | 982.82 | 734.22
298.15 K, x2 = 0.5 | 0.0168 | 987.18 | 505.63
298.15 K, x2 = 0.75 | 0.0414 | 995.89 | 237.96
303.15 K, x2 = 0 | 0.011 | 977.68 | 695.04
303.15 K, x2 = 0.25 | 0.0158 | 979.76 | 508.12
303.15 K, x2 = 0.5 | 0.0237 | 984.04 | 335.23
303.15 K, x2 = 0.75 | 0.0547 | 992.65 | 168.93
313.15 K, x2 = 0 | 0.0188 | 971.57 | 350.86
313.15 K, x2 = 0.25 | 0.0253 | 973.59 | 259.52
313.15 K, x2 = 0.5 | 0.0401 | 977.71 | 184.22
313.15 K, x2 = 0.75 | 0.0853 | 986.16 | 92.15
323.15 K, x2 = 0 | 0.0294 | 965.45 | 192.24
323.15 K, x2 = 0.25 | 0.0392 | 967.39 | 145.61
323.15 K, x2 = 0.5 | 0.0635 | 971.55 | 102.76
323.15 K, x2 = 0.75 | 0.128 | 979.59 | 56.03
333.15 K, x2 = 0 | 0.0447 | 959.5 | 114.05
333.15 K, x2 = 0.25 | 0.0563 | 961.39 | 87.86
333.15 K, x2 = 0.5 | 0.093 | 965.34 | 65.77
333.15 K, x2 = 0.75 | 0.183 | 972.96 | 36.96
343.15 K, x2 = 0 | 0.065 | 953.54 | 72.45
343.15 K, x2 = 0.25 | 0.0858 | 955.37 | 56.87
343.15 K, x2 = 0.5 | 0.132 | 959.05 | 43.81
343.15 K, x2 = 0.75 | 0.258 | 966.29 | 24.58

CCCC[P+](CCCC)(CCCC)CCCN.C[C@H](N)C(=O)[O-] [(3-aminopropyl)tributylphosphonium L-alaninate]
[2]
Details | electrical conductivity [S/m] | mass density [kg/m3] | viscosity [mPa·s]
298.15 K | 0.0141 | 986.75 | 804.88
303.15 K | 0.0209 | 983.72 | 561.4
313.15 K | 0.032 | 977.65 | 291.07
323.15 K | 0.0464 | 971.62 | 164.61
333.15 K | 0.0649 | 965.71 | 106.7
343.15 K | 0.0884 | 959.97 | 65.96

CC(C)C[C@H](N)C(=O)[O-].CCCC[P+](CCCC)(CCCC)CCCN [(3-aminopropyl)tributylphosphonium L-leucinate]
[2]
Details | electrical conductivity [S/m] | mass density [kg/m3] | viscosity [mPa·s]
298.15 K | 0.008 | 971.86 | 1227.9
303.15 K | 0.0108 | 968.8 | 855.26
313.15 K | 0.0185 | 962.68 | 417.9
323.15 K | 0.0291 | 956.54 | 224.29
333.15 K | 0.0414 | 950.54 | 130.46
343.15 K | 0.0605 | 944.58 | 81.01

CC(C)[C@H](N)C(=O)[O-].CCCC[P+](CCCC)(CCCC)CCCN [(3-aminopropyl)tributylphosphonium L-valinate]
[2]
Details | electrical conductivity [S/m] | mass density [kg/m3] | viscosity [mPa·s]
298.15 K | 0.00815 | 980.72 | 1015.5
303.15 K | 0.011 | 977.68 | 695.04
313.15 K | 0.0188 | 971.57 | 350.86
323.15 K | 0.0294 | 965.45 | 192.24
333.15 K | 0.0447 | 959.5 | 114.05
343.15 K | 0.065 | 953.54 | 72.45

Source: the NIST ThermoML archive (doi:10.1021/je2007549)
